ChEMBL document CHEMBL4513138, “CO-ADD screening of University of Mosul (Iraq) compounds”

What was measured:
HEK293 = assay: cells; format: functional; settings: Homo sapiens, ATCC CRL1573, HEK293; ASSAY_TEST Inhibition of Cell Viability; detection method Resazurin; Fluorescence (ex560/em590); MEDIA DMEM with 10% FBS; plate type 384well; TC; CORNING #3712; time 18 hr
Pseudomonas aeruginosa = assay: microbe, parasite or virus in culture; settings: ATCC 27853, 18 h, ASSAY_TEST Inhibition of Bacterial Growth, detection method Absorption (OD600), MEDIA CAMHB, plate type 384well, NBS, CORNING #3640
Description: Antibacterial activity against Pseudomonas aeruginosa ATCC 27853 (CO-ADD:GN_042); MIC in CAMBH media using NBS plates, by OD(600)

Staphylococcus aureus = assay: microbe, parasite or virus in culture; settings: ATCC 43300, 18 h, ASSAY_TEST Inhibition of Bacterial Growth, detection method Absorption (OD600), MEDIA CAMHB, plate type 384well, NBS, CORNING #3640
Description: Antibacterial activity against Staphylococcus aureus MRSA ATCC 43300 (CO-ADD:GP_020); MIC in CAMBH media, using NBS plates, by OD(600)

Acinetobacter baumannii = assay: microbe, parasite or virus in culture; settings: ATCC 19606, 18 h, ASSAY_TEST Inhibition of Bacterial Growth, detection method Absorption (OD600), MEDIA CAMHB, plate type 384well, NBS, CORNING #3640
Description: Antibacterial activity against Acinetobacter baumannii ATCC 19606 (CO-ADD:GN_034); MIC in CAMBH media using NBS plates, by OD600

Candida albicans = assay: microbe, parasite or virus in culture; settings: ATCC 90028, ASSAY_TEST Inhibition of Fungal Growth, detection method Absorption (OD530), plate type 384well, NBS, CORNING #3640
Description: Antifungal activity against Candida albicans ATCC 90028 (CO-ADD:FG_001); MIC in YNB media using NBS plates, by OD630

Escherichia coli = assay: microbe, parasite or virus in culture; settings: ATCC 25922, 18 h, ASSAY_TEST Inhibition of Bacterial Growth, detection method Absorption (OD600), MEDIA CAMHB, plate type 384well, NBS, CORNING #3640
Description: Antibacterial activity against Escherichia coli ATCC 25922 (CO-ADD:GN_001); MIC in CAMBH media using NBS plates, by OD(600)

Klebsiella pneumoniae = assay: microbe, parasite or virus in culture; settings: ATCC 700603, 18 h, ASSAY_TEST Inhibition of Bacterial Growth, detection method Absorption (OD600), MEDIA CAMHB, plate type 384well, NBS, CORNING #3640
Description: Antibacterial activity against Klebsiella pneumoniae MDR ATCC 70063 (CO-ADD:GN_003); MIC in CAMBH media using NBS plates, by OD(600)

Description for Cryptococcus neoformans: Antifungal activity against Cryptococcus neoformans H99 ATCC 208821 (CO-ADD:FG_002); MIC in YNB media using NBS plates, by Resazurin OD(600-570)

Structure (SMILES): CC1COc2c(N3CCN(C)CC3)c(F)cc3c(=O)c(C(=O)Nc4ccc(-c5n[nH]c(=S)o5)cc4)cn1c23.Cl (configuration not stated)
- CC50 (HEK293): > 32 µg/mL
- MIC (Pseudomonas aeruginosa): ≤ 0.25 µg/mL
- MIC (Staphylococcus aureus): ≤ 0.25 µg/mL
- MIC (Acinetobacter baumannii): 0.5 µg/mL
- MIC (Candida albicans): > 32 µg/mL
- MIC (Escherichia coli): ≤ 0.25 µg/mL
- MIC (Cryptococcus neoformans): > 32 µg/mL
- MIC (Klebsiella pneumoniae): ≤ 0.25 µg/mL

Structure (SMILES): Cl.O=C(Nc1ccc(-c2n[nH]c(=S)o2)cc1)c1cn(C2CC2)c2cc(N3CCNCC3)c(F)cc2c1=O
- CC50 (HEK293): 17.8 µg/mL
- MIC (Pseudomonas aeruginosa): 32 µg/mL
- MIC (Staphylococcus aureus): 32 µg/mL
- MIC (Acinetobacter baumannii): 32 µg/mL
- MIC (Candida albicans): > 32 µg/mL
- MIC (Escherichia coli): 4 µg/mL
- MIC (Cryptococcus neoformans): > 32 µg/mL
- MIC (Klebsiella pneumoniae): 32 µg/mL

Structure (SMILES): COc1c(N2CC3CCCNC3C2)c(F)cc2c(=O)c(C(=O)Nc3ccc(-c4n[nH]c(=S)o4)cc3)cn(C3CC3)c12.Cl (configuration not stated)
- CC50 (HEK293): 6.76 µg/mL
- MIC (Pseudomonas aeruginosa): 4 µg/mL
- MIC (Staphylococcus aureus): ≤ 0.25 µg/mL
- MIC (Acinetobacter baumannii): ≤ 0.25 µg/mL
- MIC (Candida albicans): > 32 µg/mL
- MIC (Escherichia coli): ≤ 0.25 µg/mL
- MIC (Cryptococcus neoformans): > 32 µg/mL
- MIC (Klebsiella pneumoniae): ≤ 0.25 µg/mL

Structure (SMILES): CC(O)C1C(=O)N2C(C(=O)Nc3ccc(-c4n[nH]c(=S)o4)cc3)=C(SC3CNC(C(=O)N(C)C)C3)C(C)C12.Cl (configuration not stated)
- CC50 (HEK293): > 32 µg/mL
- MIC (Pseudomonas aeruginosa): > 32 µg/mL
- MIC (Staphylococcus aureus): > 32 µg/mL
- MIC (Acinetobacter baumannii): > 32 µg/mL
- MIC (Candida albicans): > 32 µg/mL
- MIC (Escherichia coli): > 32 µg/mL
- MIC (Cryptococcus neoformans): > 32 µg/mL
- MIC (Klebsiella pneumoniae): > 32 µg/mL
